{"source": "paper PMC6149812", "about": "“Access to New Cytotoxic Quinone-Amino Acid Conjugates Linked through A Vinylic Spacer from 2-Acylnaphthoquinones and Methyl 3-Aminocrotonate” (Molecules : A Journal of Synthetic Chemistry and Natural …, 2017)", "key": {"[1]": {"system": "AGS human gastric adenocarcinoma cells", "assay": "MTT reduction cytotoxicity assay, 72 h drug exposure, AGS", "assay_type": "cell-based", "details": "human gastric adenocarcinoma cell line, 72 h exposure, average of six determinations, read-out: IC50 ± SEM, AGS"}, "[2]": {"system": "SK-MES-1 human lung cancer cells", "assay": "MTT reduction cytotoxicity assay, 72 h drug exposure, SK-MES-1", "assay_type": "cell-based", "details": "72 h exposure, average of six determinations, read-out: IC50 ± SEM, SK-MES-1"}, "[3]": {"system": "J82 human bladder carcinoma cells", "assay": "MTT reduction cytotoxicity assay, 72 h drug exposure, J82", "assay_type": "cell-based", "details": "human bladder carcinoma cell line, 72 h exposure, average of six determinations, read-out: IC50 ± SEM, J82"}, "[4]": {"assay": "MTT reduction cytotoxicity assay, 72 h drug exposure, cell line panel of Table 3", "assay_type": "cell-based", "details": "human, summary range over the cell lines of Table 3, 72 h exposure, read-out: cytotoxic activities, range of IC50 over Table 3", "experimental": "Finally, HL-60 cells were grown in RPMI medium."}, "[5]": {"system": "MRC-5 normal human lung fibroblasts", "assay": "cells", "details": "MRC5, 72 h, read-out: IC50 ± SEM, MRC-5", "description": "(§1) Cytotoxic activities of the compounds are expressed in terms of IC50. Etoposide, a clinically used anticancer agent, was taken as a positive control.\n(§2) Media were supplemented with 10% heat-inactivated fetal bovine serum (FBS), 100 IU/mL penicillin and 100 μg/mL streptomycin and cell cultures were kept in a humidified incubator with 5% CO2 in air at 37 °C. For the cytotoxicity experiments, cells were seeded into 96-well plates at a density of 50,000 cells/mL. After reaching confluence, cells were incubated for three days with compounds at varied concentrations ranging from 0 up to 100 μM while untreated cells (medium containing 1% DMSO) were used as controls. Cytotoxicity was assessed using the MTT (3-(4,5-dimethylthiazol-2-yl)-2,5-diphenyltetrazolium bromide) reduction assay. […] Values were the means of six replicates for each concentration and transformed to percentage of controls."}, "[6]": {"system": "MRC-5 normal human lung fibroblasts", "details": "for IC50: read-out: IC50 ± SEM, MRC-5, normal human lung fibroblasts, 72 h exposure, MTT, average of six determinations", "description": "as §1, §2"}, "[7]": {"details": "SK-MES-1, human lung cancer cell line"}}, "note": "Like-named read-outs stand apart in the source and are kept apart here.", "data": [{"compound": "COC(=O)C1=C(C)N(CCO)C(C)(O)C2=C1C(=O)c1ccccc1C2=O", "note": "(stereo not shown) [Compound 5a, Methyl 1-hydroxy-2-(2-hydroxyethyl)-1,3-dimethyl-5,10-dioxo-1,2,5,10-tetrahydrobenzo[g]isoquinoline-4-carboxylate]", "values": [{"measurement": "melting point", "value": "215 to 217", "unit": "°C"}]}, {"compound": "COC(=O)C1=C(C)N(CCO)C(O)(c2ccccc2)C2=C1C(=O)c1ccccc1C2=O", "note": "(stereo not shown) [Compound 5b, Methyl 1-hydroxy-2-(2-hydroxyethyl)-3-methyl-5,10-dioxo-1-phenyl-1,2,5,10-tetrahydrobenzo[g] isoquinoline-4-carboxylate]", "values": [{"measurement": "melting point", "value": "236.5 to 238.5", "unit": "°C"}]}, {"compound": "COC(=O)/C(C1=C(C(=O)c2ccccc2)C(=O)c2ccccc2C1=O)=C(/C)N[C@@H](C)C(=O)OC", "note": "[Compound 6, Methyl (S,Z)-2-(3-benzoyl-1,4-dioxo-1,4-dihydronaphthalen-2-yl)-3-[(1-methoxy-1-oxopropan-2-yl)amino]-but-2-enoate]", "values": [{"measurement": "IC50", "setting": "[1]", "value": "52.7 ± 3.7", "unit": "µM"}, {"measurement": "IC50", "setting": "[2]; [7]", "value": "47.8 ± 3.3", "unit": "µM"}, {"measurement": "IC50", "setting": "[3]", "value": "37.1 ± 2.2", "unit": "µM"}, {"measurement": "IC50 at 72 h", "setting": "[4]", "value": "4.5 to 53.4", "unit": "µM"}, {"measurement": "melting point", "value": "217 to 218", "unit": "°C"}, {"measurement": "IC50", "setting": "[5]", "value": "58 ± 4.1", "unit": "µM"}]}, {"compound": "COC(=O)/C(C1=C(C(=O)c2ccccc2)C(=O)c2ccccc2C1=O)=C(/C)N[C@H](C)C(=O)OC", "note": "[Compound 7, Methyl (R,Z)-2-(3-benzoyl-1,4-dioxo-1,4-dihydronaphthalen-2-yl)-3-[(1-methoxy-1-oxopropan-2-yl)amino]-but-2-enoate]", "values": [{"measurement": "IC50", "setting": "[1]", "value": "20.5 ± 1.1", "unit": "µM"}, {"measurement": "IC50", "setting": "[2]; [7]", "value": "53.4 ± 4.3", "unit": "µM"}, {"measurement": "IC50", "setting": "[3]", "value": "35.6 ± 1.4", "unit": "µM"}, {"measurement": "IC50 at 72 h", "setting": "[4]", "value": "4.5 to 53.4", "unit": "µM"}, {"measurement": "IC50", "setting": "[5]", "value": "17.4 ± 0.7", "unit": "µM"}]}, {"compound": "COC(=O)/C(C1=C(C(=O)c2ccccc2)C(=O)c2ccccc2C1=O)=C(/C)N[C@@H](CC(C)C)C(=O)OC", "note": "[Compound 8, Methyl (Z)-[3-(3-benzoyl-1,4-dioxo-1,4-dihydronaphthalen-2-yl)-4-methoxy-4-oxobut-2-en-2-yl]-L-leucinate]", "values": [{"measurement": "IC50", "setting": "[1]", "value": "26.9 ± 1.5", "unit": "µM"}, {"measurement": "IC50", "setting": "[2]; [7]", "value": "34.5 ± 1.7", "unit": "µM"}, {"measurement": "IC50", "setting": "[3]", "value": "12.9 ± 0.9", "unit": "µM"}, {"measurement": "IC50 at 72 h", "setting": "[4]", "value": "4.5 to 53.4", "unit": "µM"}, {"measurement": "melting point", "value": "222.5 to 224.5", "unit": "°C"}, {"measurement": "IC50", "setting": "[5]", "value": "26.6 ± 1.3", "unit": "µM"}]}, {"compound": "CCCCCC(=O)C1=C(/C(C(=O)OC)=C(\\C)N[C@@H](CC(C)C)C(=O)OC)C(=O)c2ccccc2C1=O", "note": "[Compound 13, Methyl (Z)-[3-(3-hexanoyl-1,4-dioxo-1,4-dihydronaphthalen-2-yl)-4-methoxy-4-oxobut-2-en-2-yl]-L-leucinate]", "values": [{"measurement": "IC50", "setting": "[1]", "value": "17 ± 1.1", "unit": "µM"}, {"measurement": "IC50", "setting": "[2]; [7]", "value": "21.6 ± 1.3", "unit": "µM"}, {"measurement": "IC50", "setting": "[3]", "value": "23.5 ± 1.6", "unit": "µM"}, {"measurement": "IC50 at 72 h", "setting": "[4]", "value": "4.5 to 53.4", "unit": "µM"}, {"measurement": "IC50", "setting": "[5]", "value": "24.9 ± 0.7", "unit": "µM"}]}, {"compound": "COc1cc([C@@H]2c3cc4c(cc3[C@@H](O[C@@H]3O[C@@H]5CO[C@@H](C)O[C@H]5[C@H](O)[C@H]3O)[C@H]3COC(=O)[C@H]23)OCO4)cc(OC)c1O", "note": "[Ref., etoposide, reference compound]", "values": [{"measurement": "IC50", "setting": "[1]", "value": 0.4, "unit": "µM"}, {"measurement": "IC50", "setting": "[2]; [7]", "value": "2.9 ± 0.2", "unit": "µM"}, {"measurement": "IC50", "setting": "[3]", "value": "3.3 ± 0.2", "unit": "µM"}, {"measurement": "IC50", "setting": "[5]", "value": "2.2 ± 0.1", "unit": "µM"}]}, {"compound": "Methyl (R,Z)-2-(3-benzoyl-1,4-dioxo-1,4-dihydronaphthalen-2-yl)-3-[(1-methoxy-1-oxo-3-phenylpropan-2-yl)amino]-but-2-enoate [Compound 10]", "values": [{"measurement": "IC50", "setting": "[1]", "value": "30.7 ± 1.5", "unit": "µM"}, {"measurement": "IC50", "setting": "[2]; human lung cancer cell line", "value": "34.2 ± 2.3", "unit": "µM"}, {"measurement": "IC50", "setting": "[3]", "value": "23 ± 0.7", "unit": "µM"}, {"measurement": "IC50", "setting": "[6]", "value": "46.7 ± 2.9", "unit": "µM"}]}, {"compound": "Methyl (R,Z)-2-(3-butyryl-1,4-dioxo-1,4-dihydronaphthalen-2-yl)-3-[(1-methoxy-1-oxo-3-phenylpropan-2-yl)amino]-but-2-enoate [Compound 12]", "values": [{"measurement": "IC50", "setting": "[1]", "value": "12.8 ± 0.7", "unit": "µM"}, {"measurement": "IC50", "setting": "[2]; human lung cancer cell line", "value": "15.9 ± 0.9", "unit": "µM"}, {"measurement": "IC50", "setting": "[3]", "value": "14 ± 0.6", "unit": "µM"}, {"measurement": "IC50", "setting": "[6]", "value": "21.8 ± 1.5", "unit": "µM"}]}, {"compound": "Methyl (S,Z)-2-(3-benzoyl-1,4-dioxo-1,4-dihydronaphthalen-2-yl)-3-[(1-methoxy-1-oxo-3-phenylpropan-2-yl)amino]-but-2-enoate [Compound 9]", "values": [{"measurement": "IC50", "setting": "[1]", "value": "19.3 ± 1.5", "unit": "µM"}, {"measurement": "IC50", "setting": "[2]; human lung cancer cell line", "value": "39.3 ± 1.6", "unit": "µM"}, {"measurement": "IC50", "setting": "[3]", "value": "22 ± 1.1", "unit": "µM"}, {"measurement": "IC50", "setting": "[6]", "value": "33.3 ± 2.2", "unit": "µM"}]}, {"compound": "Methyl (S,Z)-3-[(3-(1H-indol-3-yl)-1-methoxy-1-oxopropan-2-yl)amino]-2-(3-benzoyl-1,4-dioxo-1,4-dihydronaphthalen-2-yl)-but-2-enoate [Compound 11]", "values": [{"measurement": "IC50", "setting": "[1]", "value": "10.1 ± 0.1", "unit": "µM"}, {"measurement": "IC50", "setting": "[2]; human lung cancer cell line", "value": "18.9 ± 0.5", "unit": "µM"}, {"measurement": "IC50", "setting": "[3]", "value": "21.4 ± 0.8", "unit": "µM"}, {"measurement": "IC50", "setting": "[6]", "value": "13 ± 0.8", "unit": "µM"}]}, {"compound": "Methyl (S,Z)-3-[(3-(1H-indol-3-yl)-1-methoxy-1-oxopropan-2-yl)amino]-2-(3-hexanoyl-1,4-dioxo-1,4-dihydronaphthalen-2-yl)but-2-enoate [Compound 14]", "values": [{"measurement": "IC50", "setting": "[1]", "value": "9.3 ± 0.6", "unit": "µM"}, {"measurement": "IC50", "setting": "[2]; human lung cancer cell line", "value": "5.5 ± 0.2", "unit": "µM"}, {"measurement": "IC50", "setting": "[3]", "value": "4.5 ± 0.2", "unit": "µM"}, {"measurement": "cytotoxicity relative to etoposide on normal human lung fibroblasts cells", "setting": "[6]", "value": "ten times lower"}, {"measurement": "IC50", "setting": "[6]", "value": "22.1 ± 1.6", "unit": "µM"}]}]}
